Where a SMILES comes first, the peptide text is derived from it. Bridges are numbered along the chain shown (N, C = ends). [ ]: non-standard residue; d: D form. The star is where a group is joined. Octanoyl = CCCCCCCC(=O)*; Dab = NCC[C@H](N)C(=O)O; Abu = CC[C@H](N)C(=O)O
Columns and labels:
[1] = target: T1, binding of Shiga toxin 2 to human neutrophils expressing the TLR4 (Escherichia phage 933W, UniProt P09385); assay: cell-based; assay type: cell-based
[2] = system: monocyte/platelet aggregates in human blood; assay type: cell-based
[3] = system: neutrophil/platelet aggregates in human blood; assay type: cell-based
[4] = target: T1, binding of Shiga toxin 2 to human neutrophils expressing the TLR4; settings: cited from earlier work
human renal tubule cells = settings: cited from earlier work
[5] = system: Raji cells (Burkitt lymphoma); settings: cited from earlier work
[6] = system: Raji cells (Burkitt lymphoma); assay type: cell-based, human
Shiga toxin 2 = Shiga toxin 2 (Escherichia phage 933W, UniProt P09385); assay: biochemical; assay type: binding
Chain of Shiga toxin 2 (P09385 whole entry, looked up): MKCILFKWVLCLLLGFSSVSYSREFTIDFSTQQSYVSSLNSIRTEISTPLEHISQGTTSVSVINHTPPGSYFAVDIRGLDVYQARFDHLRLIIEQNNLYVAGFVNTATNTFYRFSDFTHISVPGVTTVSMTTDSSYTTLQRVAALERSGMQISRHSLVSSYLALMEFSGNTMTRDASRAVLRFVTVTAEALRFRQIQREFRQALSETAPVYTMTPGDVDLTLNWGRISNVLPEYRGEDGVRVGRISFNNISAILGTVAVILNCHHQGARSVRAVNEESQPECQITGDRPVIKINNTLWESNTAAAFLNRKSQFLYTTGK

T1 sequence (P09385 whole entry, looked up): as above

In the case of “OA-Thr-Abu-cy[Dab-Dab-DPhe-Leu-Dab-Dab-Thr-] [NAB7061, reference compound]”, the “inhibition of the binding of Shiga toxin 2 to the neutrophil (in words)” value (“inhibition of the binding … (in words)” for short) [1] is reported as “scarcely effective”.
For “MOA/MHA-Dab-Thr-Dab-cy[Dab-Dab-DPhe-Leu-Dab-Dab-Thr-] [polymyxin B]”, the “effect on formation of monocyte/platelet aggregates (in words)” value [2] is given as “not effective”, the “effect on formation of neutrophil/platelet aggregates (in words)” value [3] is given as “not effective” and the “IC50 of binding of Shiga toxin 2 to neutrophils” value [4] is given as 3.5 µg/mL. The “cytotoxicity IC50” value (human renal tubule cells) was 18 µg/mL and the “protection of Raji cells from Shiga toxin 2 intoxication” value [5] was “no protective effect”.
With “Ac-Thr-DSer-cy[Dab-Dab-DPhe-Leu-Dab-Dab-Thr-] [NAB741, reference compound]” the “inhibition of the binding … (in words)” value [1] was “scarcely effective”.
In the case of `CCCCCCCC(=O)N[C@@H](CCN)C(=O)N[C@H](C(=O)N[C@@H](C(=O)N[C@H]1CCNC(=O)[C@H]([C@@H](C)O)NC(=O)[C@H](CCN)NC(=O)[C@H](CC)NC(=O)[C@H](CC(C)C)NC(=O)[C@@H](Cc2ccccc2)NC(=O)[C@H](CCN)NC1=O)[C@H](C)O)[C@@H](C)O` [NAB815, OA-Dab-Thr-DThr-cy[Dab-Dab-DPhe-Leu-Abu-Dab-Thr-]] (Octanoyl-[Dab]T[dT][Dab][Dab][dF]L[Abu][Dab]T; lactam 4-C), the “protection of Raji cells from Shiga toxin 2 intoxication (protein synthesis)” value [6] is reported as “no protective effect”, the “inhibition of the binding … (in words)” value [1] is reported as “strong inhibitor” and the IC50 ([1]; IC50 (concentration determining a 50% inhibition) of binding of Shiga toxin 2 to neutrophils) is reported as 48.5 nM. The IC50 ([1]; concentration inhibiting binding of Shiga toxin 2 to neutrophils by 50%) was 43 nM, the Kd (Shiga toxin 2) was 5 nM and the “maximum reduction of the fluorescence emission” value (Shiga toxin 2) was “approximately 10%”. The “inhibition of formation of monocyte/platelet aggregates” value [2] was “more than 70%” and the “inhibition of formation of neutrophil/platelet aggregates” value [3] was “more than 70%”.

From patent US12472225B2 (priority 2019, dated 2025)
